Experimental data published in US10647682B2, “Salts of 2,6-dimethylpyrimidone derivatives and uses thereof” (SUNSHINE LAKE PHARMA CO., LTD., priority 2016, dated 2020).
Like-named read-outs stand apart in the source and are kept apart here.

Assays:
[1] = Pharmacokinetics experiments of the salts, oral capsules in Beagle dogs; details: 5 mg/kg
Experimental: (§1) (3-(4-(dihexylamino)-3-fluorophenyl)-2,6-dimethylpyrimidin-4(3H)-one), crystalline forms of the various salts were filled into capsules, which were administered orally.
(§2) Blood samples were collected at 0.25, 0.5, 1.0, 2.0, 4.0, 6.0, 8.0, 12 and 24 hours after the administration. Standard curve was plotted based on concentrations of the samples in a suitable range, the concentrations of test compounds in plasma samples were determined by using Agilent 6430 LC-MS/MS under MRM mode, and quantitative analysis was performed. Pharmacokinetic parameters were calculated according to drug concentration-time curve using a noncompartmental method by WinNonLin 6.3 software.

[2] = High temperature test (stability); type: physicochemical; details: 60° C.; for purity: HPLC
Experimental: High temperature test: an appropriate amount of sample was put in a weighing bottle in the form of a thin layer of ≤5 mm, under a temperature of 60° C. for 10 days. Samples were took at fifth and tenth day, appearance was observed and purity was detected by HPLC.

[3] = High humidity test (stability); type: physicochemical; details: 25° C., RH 90%±5%, HPLC
Experimental: High humidity test: an appropriate amount of sample was put in a weighing bottle in the form of a thin layer of ≤5 mm, under a temperature of 25° C. and RH 90%±5% for 10 days. Samples were took at fifth and tenth day, appearance was observed and purity was detected by HPLC.

[4] = dog, in vivo, po, 5 mg/kg
Experimental: as §1, §2

Structure (SMILES) | purity ([2]; 0 d) | purity ([2]; 5 d) | purity ([2]; 10 d) | purity ([3]; 0 d) | purity ([3]; 5 d) | purity ([3]; 10 d) | AUCINF ([1]; male Beagle dogs, oral capsule) | AUClast ([1]; male Beagle dogs, oral capsule) | Cmax ([1]; male Beagle dogs, oral capsule) | MRTINF ([1]; male Beagle dogs, oral capsule) | T1/2 ([1]; male Beagle dogs, oral capsule) | Tmax ([1]; male Beagle dogs, oral capsule) | AUCINF [4] | AUClast [4] | Cmax [4] | MRTINF [4] | T1/2 [4] | Tmax [4] | exposure compared to free compound (I) [4] | other results
CCCCCCN(CCCCCC)c1ccc(-n2c(C)nc(C)cc2=O)cc1F [Compound (I), 3-(4-(dihexylamino)-3-fluorophenyl)-2,6-dimethylpyrimidin-4(3H)-one] |  |  |  |  |  |  |  |  |  |  |  |  |  |  |  |  |  |  |  | AUC(0-inf) ([1]; male, Beagle, dog, plasma, po): 2320 ng·h/mL; AUC(0-t) ([1]; male, Beagle, dog, plasma, po): 1730 ng·h/mL; Cmax ([1]; male, Beagle, dog, plasma, po): 244 ng/mL; MRT inf ([1]; male, Beagle, dog, plasma, po): 23.3 h; Tmax ([1]; male, Beagle, dog, plasma, po): 1.17 h; half-life ([1]; male, Beagle, dog, plasma, po): 13.8 h
CCCCCCN(CCCCCC)c1ccc(-n2c(C)nc(C)cc2=O)cc1F.Cl [Example 1, 3-(4-(dihexylamino)-3-fluorophenyl)-2,6-dimethylpyrimidin-4(3H)-one Hydrochloride Crystal-I] | 99.81% | 99.80% | 99.79% | 99.81% | 99.79% | 99.80% | 6310 ng·h/mL | 4470 ng·h/mL | 364 ng/mL | 41.9 h | 34.5 h | 2.33 h |  |  |  |  |  |  |  | 
CCCCCCN(CCCCCC)c1ccc(-n2c(C)nc(C)cc2=O)cc1F.Cl [Example 2, 3-(4-(dihexylamino)-3-fluorophenyl)-2,6-dimethylpyrimidin-4(3H)-one Hydrochloride Crystal-II] | 99.85% | 99.86% | 99.83% | 99.85% | 99.86% | 99.82% |  |  |  |  |  |  | 2820 ng·h/mL | 2940 ng·h/mL | 485 ng/mL | 9.43 h | 9.54 h | 8.83 h | relative higher exposure | 
CCCCCCN(CCCCCC)c1ccc(-n2c(C)nc(C)cc2=O)cc1F.Cc1ccc(S(=O)(=O)O)cc1 [Example 6, 3-(4-(dihexylamino)-3-fluorophenyl)-2,6-dimethylpyrimidin-4(3H)-one Tosilate Crystal-I] | 99.83% | 99.81% | 99.81% | 99.83% | 99.80% | 99.83% | 3010 ng·h/mL | 2720 ng·h/mL | 329 ng/mL | 17.5 h | 17.5 h | 2 h |  |  |  |  |  |  |  | exposure compared to free compound (I) ([1]; male Beagle dogs, oral capsule, conclusion from table 1): relative higher exposure
CCCCCCN(CCCCCC)c1ccc(-n2c(C)nc(C)cc2=O)cc1F.O=C(O)/C=C\C(=O)O [Example 8, 3-(4-(dihexylamino)-3-fluorophenyl)-2,6-dimethylpyrimidin-4(3H)-one Maleate Crystal-I] | 99.53% | 99.49% | 99.05% | 99.53% | 99.51% | 99.49% |  |  |  |  |  |  | 38337.53 ng·h/mL | 5859.22 ng·h/mL | 588 ng/mL | 155.21 h | 110.28 h | 2 h | relative higher exposure | appearance ([2]; 0 d): white solid
